According to patent US7700584B2 (Hangzhou Minsheng Pharmaceuticals Co., Ltd., priority 2004, dated 2010):
≈ marks a conversion by molar mass, not a printed value. Where a name gives a salt, the structure may show the parent alone. Read-outs that look alike come from different tables or passages of the source.

Assays:
[1] = system: eight selected tumor cell lines; assay: In vitro anti-tumor IC50, summary over the selected tumor cell lines; assay type: cell-based; conditions: for activity to Hela, U-937 and HL-60 cell lines (in words): Hela and U-937, also U-937 and HL-60 cell lines
Procedure: (§1) (1) Single cell suspension was seeded into 96-well plates (the cells was diluted in the PRMI-1640 minimum medium to 3×10^4 cells/ml, […] diluted cells/well). […] The experiments were performed in quadruplicate.
(§2) (2) The medium was removed. Solutions of the anti-tumor agents (50 compounds) were prepared in a freshly prepared medium at serial concentrations. […] of the solution was added into each well. Incubation was continued for 48 hours.
(§3) (3) 20 ug of 2 mg/ml MTT was added into each well, and incubated for 4 hours.
(§4) (4) The medium was removed from the well. The microplates were swiftly turned down to throw-off the medium. […] of DMSO was added into each well, and vortexed at room temperature for 10 minutes.
(§5) (5) OD value (λ=570 nm) was measured with an Enzyme-Linked Detector.
(§6) (6) The graph of cell vitality was plotted, and IC50 was calculated.

[2] = system: MCF-7 human mammary adenocarcinoma; assay: In vitro anti-tumor IC50 (MTT), MCF-7; assay type: cell-based; conditions: Table 4; for IC50: Homo sapiens, MCF7, read-out: IC50 (ug/ml) against tumor cell lines, MCF
Procedure: as §1, §2, §3, §4, §5, §6

[3] = target: T1, HIV-1 reverse transcriptase (Human immunodeficiency virus type 1 group M subtype B, UniProt P04585); assay: Screening for the in vitro activity against the HIV-1 reverse transcriptase; assay type: biochemical
T1 construct: purchased
Procedure: Principle of the test: The template to which the HIV-1 reverse transcriptase interacts was covered onto the enzyme-lined template. In the optimal reaction conditions and system, HIV-1 RT will put the substrate comprising Biotin-dUTP onto the reaction template. The activity of the enzyme was measured as the amount of the integrating Biotin-dUTP in the reaction by using streptavidin-labeled horseradish peroxidase. Adding the sample to the reaction system can identify inhibitor of the enzyme.
1. HIV-1 RT: commercially available.
2. Treatment of the samples: Before use, the sample was dissolved in DMSO at a suitable concentration, then serially diluted (5×) with double distilled water, five serial dilutions per sample.
4. Methods: The diluted sample was added into the reaction buffer containing Biotin-dUTP and the genetic engineered target enzyme, and incubated in the optimal reaction conditions. A streptavidin-labeled horseradish peroxidase was added to visual the system, and OD450 was measured.

[4] = system: HL-60 human promyelocytic leukemia; assay: In vitro inhibition rate to tumor cells (MTT), HL-60; assay type: cell-based; conditions: for inhibition rate, Results (%) HL-60: 50 μg/ml; for inhibition at 50 µg/mL: Homo sapiens
MDCK (dog kidney) cells = assay: Toxicity TC50 of the samples in MDCK cells (influenza screening); conditions: concentration of 50% toxicity
Hepatitis B virus (HBV) = assay type: cell-based; conditions: for (Value of the positive control - Measured Value) Value of the positive control × 100% / OD450 of HBeAg: 200 μg/ml; for (Value of the positive control - Measured Value) Value of the positive control × 100%: decrease of HBeAg relative to positive control; for OD450 of HBeAg: supernatant four days after infection, positive control 1.917, negative 0.057
[5] = system: mouse grafted sarcoma S-180; assay: Activity against mouse grafted sarcoma S-180; assay type: in vivo, Kunming mice; conditions: for Tumor weight: X ± SD, n = 10; for inhibitory effect against mouse sarcoma S-180 (in words): three different concentrations (40, 20, 10 mg/kg), i.v.
Procedure: (1) Experimental animals: Kunming mice weighting 18-22 g;
(2) 100 mg/ml solutions of the 3 compounds were prepared, respectively, in water for injection (1% surface surfactant was added into the solution of Compound 6). 5-FU and camptothecine, 30 mg/kg and 1 mg/kg, respectively, were used as positive controls;
3. Route of Administration: Intravenous Injection.
The experiments were performed according to “Guideline for New Drugs (Western medicines) in Pre-clinical Stages” issued by Bureau of Drug Policy & Administration of the People's Republic of China, and the relevant methods in “Methodology of Pharmaceutical Experiments”, Xu Shuyun et al. ed. 120 male Kunming mice weighting […] were allowed to grow 3 days. No abnormality was observed. The mice were routinely inoculated in oxter with mouse sarcoma S-180, and weighted 4 hrs. after inoculation. The mice were randomly divided into 12 groups, 10 mice/group. Group 1 was given 0.3 ml of physiological saline as negative control; Group 2 was given 5-FU as positive control, 0.6 mg/mouse; Group 3 was given hydroxycamptothecine as positive control, 0.02 mg/mouse. Groups 4, 5 and 6 were injected with 10% Compound 6, 0.4 ml/mouse, 0.2 ml/mouse, and 0.1 ml/mouse, respectively. Groups 7, 8 and 9 were injected with 10% Compound 8, 0.4 ml/mouse, 0.2 ml/mouse, and 0.1 ml/mouse, respectively. Groups 10, 11, and 12 were injected with 10% Compound 20, 0.4 ml/mouse, 0.2 ml/mouse, and 0.1 ml/mouse, respectively. The tested compounds were administered on the next day after inoculation, once a day on alternate days, 6 doses totally administered. On the next day after the end dose, the mice were weighed and sacrificed. After the tumor was excised, body weight and tumor weight were recorded. The tumor inhibition rate was calculated based on the following formula: [(average tumor weight of the control groups−average tumor weight of the experimental groups)/average tumor weight of the control groups]×100%. The data was processed statistically. The above experiments were repeated three times.

[6] = HL-60, 50 μg/ml, Table 2 (repeated screening), read-out: inhibition rate, Results (%) HL-60
[7] = IC50, initial concentration 200 μg/ml
[8] = HL-60, 50 μg/ml, Table 1, read-out: inhibition rate, Results (%) HL-60
[9] = HL-60, 50 μg/ml, Table 3 (repeated screening), read-out: inhibition rate, Results (%) HL-60
[10] = S-180, first experiment, 10 mg/kg i.v., 6 doses
[11] = S-180, first experiment, 20 mg/kg i.v., 6 doses
[12] = S-180, first experiment, 40 mg/kg i.v., 6 doses
[13] = S-180, second experiment, 10 mg/kg i.v., 6 doses
[14] = S-180, second experiment, 20 mg/kg i.v., 6 doses
[15] = S-180, second experiment, 40 mg/kg i.v., 6 doses

SMILES	IC50 [2]	inhibition at 50 µg/mL [4, 6]	IC50 [3, 7]	inhibition at 50 µg/mL [4, 8]	inhibition at 50 µg/mL [4, 9]	(Value of the positive control - Measured Value) Value of the positive control × 100% (Hepatitis B virus (HBV))	OD450 of HBeAg (Hepatitis B virus (HBV))	TC50 (MDCK (dog kidney) cells)	Tumor weight [5, 10]	Inhibition rate (%) [5, 11]	Tumor weight [5, 11]	Inhibition rate (%) [5, 12]	Tumor weight [5, 12]	Inhibition rate (%) [5, 13]	Tumor weight [5, 13]	Inhibition rate (%) [5, 14]	Tumor weight [5, 14]	Inhibition rate (%) [5, 15]	Tumor weight [5, 15]	inhibitory effect against mouse sarcoma S-180 (in words) [5]	other results
CC(C)C1CC23OC1(O)C/C(=C\Nc1ccc(O)cc1)C2CCC3C (centres unmarked) [Compound 5, Curcumol p-hydroxy aniline]	1 µg/mL (≈ 2.91 µM)	90.9%																			inhibitory effect to all the eight selected tumor cell lines (in words) [1]: strong inhibitory effect; IC50 ([3]; initial concentration 200 μg/ml, read-out: IC50): > 582 µM; inhibition rate, Results (%) HL-60 ([4]; Table 3 (repeated screening)): 95.14%; inhibition at 50 µg/mL ([4]; HL-60, read-out: inhibition rate, Results (%) HL-60, 50 μg/ml, Table 1): 91.3%
CC(C)C1CC23OC1(O)CC(=CN1CCNCC1)C2CCC3C (centres unmarked) [Compound 7, Curcumol piperazine]	3.2 µg/mL (≈ 9.99 µM)	91%	> 624 µM	90.6%	90.2%																activity to Hela, U-937 and HL-60 cell lines (in words) [1]: excellent activity
C=C1CC2(OC(=O)C(C)C)OC3(CC2C(C)C)C(C)CCC13 (centres unmarked) [Compound 3, Curcumol isobutyrate]		4.89%		3.21%		−36.1502%	2.61														TC50 (MDCK (dog kidney) cells; given as dilution of the stock solution): 1/8403 of the stock solution; inhibition rate of HIV-1 reverse transcriptase ([3]; 120 ug/ml): 60%; IC50 ([3]; IC50, initial concentration 1/150 of the stock solution): < 392 µM
CC(C)C1CC23OC1(O)CC(=CBr)C2CCC3C (centres unmarked) [Compound 17, Curcumol monobromide]	4.63 µg/mL	90.1%	> 634 µM	92.3%		96.19%	0.073														
C=C1CC2(OS(=O)(=O)O)OC3(CC2C(C)C)C(C)CCC13 (centres unmarked) [Compound 20, Curcumol sulfonate]	4.98 µg/mL	92.4%	> 632 µM	91.3%	91.7%	−14.8148%	2.201														
CC(C)C1CC23OC1(O)C/C(=C\Nc1ccc(O)cc1)C2CCC3C (centres unmarked) [Compound 6, Curcumol p-hydroxy aniline hydrochloride]					95.5%	93.43%	0.126	192.45 µg/mL	1.1 ± 0.31 g	68.4%	0.79 ± 0.21 g	75.2%	0.62 ± 0.34 g	57.7%	1.1 ± 0.31 g	68.8%	0.82 ± 0.32 g	72.7%	0.71 ± 0.44 g	good inhibitory effect	inhibitory effect to all the eight selected tumor cell lines (in words) [1]: strong inhibitory effect; activity against HBV (in words) (Hepatitis B virus (HBV); primary screening, HBV e antigen, HepG2, 13 samples): had the activity against HBV; IC50 (ug/ml) against tumor cell lines, MCF ([2]; hydrochloride): 1.10 µg/mL; Inhibition rate (%) [5, 10]: 56%; Average weight (g)-after administration ([5]; mouse, in vivo, iv, 10 mg/kg): 22.3 g; Average weight(g)-after administration ([5]; mouse, in vivo, iv, 10 mg/kg): 22.3 g; Average weight (g)-after administration ([5]; mouse, in vivo, iv, 20 mg/kg): 22.9 g; Average weight(g)-after administration ([5]; mouse, in vivo, iv, 20 mg/kg): 21.9 g; Average weight (g)-after administration ([5]; mouse, in vivo, iv, 40 mg/kg): 22.0 g; Average weight(g)-after administration ([5]; mouse, in vivo, iv, 40 mg/kg): 22.0 g; IC50 ([3]; initial concentration 200 μg/ml): > 582 µM; inhibition rate, Results (%) HL-60 ([4]; Table 1, hydrochloride): 93.21%; inhibition rate, Results (%) HL-60 ([4]; Table 2 (repeated screening), hydrochloride): 93.21%
C=C1CC2(OS(=O)(=O)[O-])OC3(CC2C(C)C)C(C)CCC13.[Na+] (centres unmarked) [Compound 21, Curcumol sodium sulfonate]	4.99 µg/mL		> 591 µM			92.85%	0.137	>1000 µg/mL	2.6 ± 0.23 g	4%	2.4 ± 0.43 g	8%	2.3 ± 0.31 g	3.8%	2.5 ± 0.42 g	3.8%	2.5 ± 0.38 g	7.6%	2.4 ± 0.36 g	little inhibitory effect	Average weight (g)-after administration [5, 10]: 22.6 g; Average weight (g)-after administration [5, 11]: 22.5 g; Average weight (g)-after administration [5, 12]: 23.1 g; Average weight(g)-after administration [5, 13]: 22.6 g; Average weight(g)-after administration [5, 14]: 22.2 g; Average weight(g)-after administration [5, 15]: 23.1 g; inhibition rate, Results (%) HL-60 ([4]; Table 1): 93.12%; inhibition rate, Results (%) HL-60 ([4]; Table 2 (repeated screening)): 90.89%; inhibition rate, Results (%) HL-60 ([4]; Table 3 (repeated screening)): 89.79%
CC(C)C1CC23OC1(O)CC(=CN1CCNCC1)C2CCC3C (centres unmarked) [Compound 8, Curcumol piperazine hydrochloride]	3.28 µg/mL	90.2%	> 624 µM	92%	91.1%			192.45 µg/mL	2.1 ± 0.42 g	20%	2.0 ± 0.40 g	48%	1.3 ± 0.24 g	15.4%	2.2 ± 0.31 g	15.4%	2.2 ± 0.29 g	46.1%	1.4 ± 0.37 g	had the inhibitory effect only when the concentration reached 40 mg/kg	activity to Hela, U-937 and HL-60 cell lines (in words) [1]: excellent activity; Inhibition rate (%) [5, 10]: 16%; Average weight (g)-after administration ([5]; mouse, in vivo, iv, 10 mg/kg): 22.5 g; Average weight(g)-after administration ([5]; mouse, in vivo, iv, 10 mg/kg): 23.5 g; Average weight (g)-after administration ([5]; mouse, in vivo, iv, 20 mg/kg): 21.8 g; Average weight(g)-after administration ([5]; mouse, in vivo, iv, 20 mg/kg): 21.8 g; Average weight (g)-after administration ([5]; mouse, in vivo, iv, 40 mg/kg): 23.0 g; Average weight(g)-after administration ([5]; mouse, in vivo, iv, 40 mg/kg): 23.0 g
